In paper PMC12040169 (PLOS Biology, 2025):

Experiment: in vitro
Conditions: human, hela cells, % viability

| Compound | viability at 28.5 h, 10 µM [%] |
| --- | --- |
| COc1ccc(-c2nnc(SC(C)c3nnc(-c4ccccc4)o3)n2CC(C)C)cc1 (centres unmarked) [CBK297108] | 103 |
| COc1ccc(NS(=O)(=O)c2cccs2)c(OC)c1 [CBK043915] | 93 |
| CCn1c2ccccc2c2cc(CN3CCN(Cc4cccc(F)c4)CC3)ccc21 [CBK263143] | 90.5 |
| Cc1ccc(-c2ccccc2CC2(C(=O)Nc3ccc(C(N)=O)cc3)CCOCC2)c(C)c1 [CBK286422] | 95.9 |
| O=C(N/N=C/c1ccc([N+](=O)[O-])cc1)C(=O)Nc1cccc(Cl)c1 [CBK261821] | 95.8 |
| CC(Oc1cc(Cl)ccc1Cl)c1nnc(S)n1C (centres unmarked) [CBK288376] | 84.8 |
| Cc1ccc2c(c1)c(NC(=O)OC(C)C)nn2Cc1cc2c(cc1Cl)OCO2 [CBK048652] | 99.9 |
| COc1ccccc1-c1nccnc1OCc1cccs1 [CBK106819] | 88.4 |
| COc1ccc(C(=O)NC(=S)Nc2ccccc2N2CCN(C)CC2)cc1[N+](=O)[O-] [CBK268292C] | 87 |
| CC(=O)N1c2ccc(-c3cn4cc(C)ccc4n3)cc2CC1C (centres unmarked) [CBK285195] | 82.5 |
| OC(CNc1nccnc1-c1ccco1)COc1ccccc1 (centres unmarked) [CBK036862] | 96.7 |
| O=C(NC[C@H]1O[C@@H](CC(=O)N2CCN(c3ccccc3)CC2)[C@H](O)[C@@H]1O)c1ccco1 [CBK288919] | 97.9 |
| Cc1c(-c2cc(C(F)F)n3nc(CCC(=O)O)nc3n2)cnn1C [CBK286888] | 85.7 |
| CN1CCN(S(=O)(=O)c2ccc(-c3cnc(N)c(-c4ccc(O)cc4)n3)cc2F)CC1 [CBK131449] | 93.9 |
| COc1ccc(CCCCN(C(=O)C(N)Cc2ccccc2)c2cccc3ccccc23)cc1OC (centres unmarked) [CBK001032T] | 118 |
| c1nc(Nc2ccc3[nH]ccc3c2)cc(-c2ccc3c(c2)OCO3)n1 [CBK037761] | 94.4 |
| Cc1nc2n(CCN3CCCCC3)c3ccccc3n2c1C(=O)c1cccs1 [CBK278242B] | 88.6 |
| O=C1S/C(=C\c2ccc(O)c([N+](=O)[O-])c2)C(=O)N1Cc1ccc(F)cc1 [CBK102928] | 94.9 |
| CCCCN1CCCC1c1c[nH]c2ccccc12 (centres unmarked) [CBK023773G] | 93 |
| N#C/C(=C\c1ccc(-c2ccc(C(=O)O)c(O)c2)o1)c1nc2ccccc2[nH]1 [CBK262121] | 91.7 |
| O=C1COc2ccccc2C/C=C/C[C@H]2CN(C(=O)c3noc4c3CCCC4)CC[C@H]2N1 [CBK292099] | 116 |
| CC(C)C(NC(=O)CSc1n[nH]c(=O)n1Cc1ccccc1)c1ccc2c(c1)OCCCO2 (centres unmarked) [CBK297875] | 106 |

| Compound | viability at 28.5 h, 10 µM [%] |
| --- | --- |
| COc1ccc(C)cc1S(=O)(=O)N1CCN(C(c2ccccc2)c2ccccc2)CC1 [CBK263977] | 91.8 |
| Cc1csc(NC(=O)c2cccc(S(=O)(=O)NCC3CCCO3)c2)n1 (centres unmarked) [CBK305017] | 96.7 |
| c1ccc(C2CCCNC2)cc1 (centres unmarked) [CBK011753] | 100 |
| CN(CC1CC1)C(=O)Cn1cnc2c(F)cc(Br)cc2c1=O [CBK305227] | 87.2 |
| COc1cc(NS(=O)(=O)c2ccc(NC(=O)c3c(C)noc3C)cc2)nc(OC)n1 [CBK268151] | 103 |
| Cc1nc2c(c(=O)[nH]1)CN(Cc1ccccc1F)CC2 [CBK283948] | 89.3 |
| COc1ccc(Sc2cc(C(F)(F)F)ccn2)cc1OC [CBK093762] | 92.5 |
| O=C(Nc1cccc(O)c1)c1ccc2c(c1)C(=O)N(c1cccc(N3C(=O)c4ccc(C(=O)Nc5cccc(O)c5)cc4C3=O)n1)C2=O [CBK261199] | 89.8 |
| O=[N+]([O-])c1cc2c(cc1CN1CCN(Cc3ccccc3)CC1)OCO2 [CBK261548] | 94.7 |
| CN(C)CCN1CCN(c2cc(Nc3ccc(N(C)C)cc3)nc3ccnn23)CC1 [CBK037211] | 93.4 |
| O=[N+]([O-])c1cc2c(cc1C(Nc1ccccn1)c1cc(Cl)c3cccnc3c1O)OCO2 (centres unmarked) [CBK267795] | 83 |
| COc1ccc(CC(=O)Nc2cccc(OC(F)(F)F)c2)cc1OC [CBK296734] | 88.1 |
| CCOC(=O)C1(Cc2cc(-c3ccccc3)no2)CCCNC1 (centres unmarked) [CBK284583] | 98.9 |
| Nc1ncc(-c2ccc(F)cc2)c(C2CCCN(C(=O)CCc3ccc(F)cc3)C2)n1 (centres unmarked) [CBK286092] | 89 |
| O=C(CSc1ccc2nnc(-c3ccccn3)n2n1)N1CCCCC1 [CBK287621] | 101 |
| CCOC(=O)CNc1nc(OC)cc(OC)n1 [CBK093392] | 86.7 |
| Cc1cc(C(=O)CSc2nnc(C(C)C)n2Cc2ccco2)c(C)n1C [CBK295178] | 81.9 |
| Cc1cn(CC(=O)N2CCC3(CCN(Cc4ccccc4)C3)C2)c(=O)[nH]c1=O (centres unmarked) [CBK136840] | 91.6 |
| COCC1CCN(c2ncc(C#N)cc2Cl)CC1 [CBK306410] | 61.1 |
| CC(=O)NC(Cc1c[nH]c2ccccc12)C(=O)N(C)Cc1cnn(C)c1 (centres unmarked) [CBK305274] | 84.3 |
| COCc1cccc(-c2nccnc2OC)c1 [CBK106956] | 95.2 |

Same assay, conditions: human, hela cells, % viability, bulk resorufin, single well

| Compound | viability at 28.5 h, 10 µM [%] |
| --- | --- |
| CSc1cc(C)c2c(c1)COC1(CCN(C(=O)N[C@@H](C)c3ccccc3)CC1)O2 [CBK060747] | 94.5 |
